Data on 22 compounds can be found in patent publication US20170305857A1, “N-ACYLPIPERIDINE ETHER TROPOMYOSIN-RELATED KINASE INHIBITORS” (Pfizer Limited, priority 2014, published 2017).

Molecules are shown by their SMILES.

This assay deals with T1, recombinant His-tagged cytoplasmic domains of TRKA receptor (NTRK1, PV3144, aa 441-796) (Homo sapiens, UniProt P04629).
T1 construct: aa 441-796; His; purchased Invitrogen PV3144
T1 sequence (P04629 441-796): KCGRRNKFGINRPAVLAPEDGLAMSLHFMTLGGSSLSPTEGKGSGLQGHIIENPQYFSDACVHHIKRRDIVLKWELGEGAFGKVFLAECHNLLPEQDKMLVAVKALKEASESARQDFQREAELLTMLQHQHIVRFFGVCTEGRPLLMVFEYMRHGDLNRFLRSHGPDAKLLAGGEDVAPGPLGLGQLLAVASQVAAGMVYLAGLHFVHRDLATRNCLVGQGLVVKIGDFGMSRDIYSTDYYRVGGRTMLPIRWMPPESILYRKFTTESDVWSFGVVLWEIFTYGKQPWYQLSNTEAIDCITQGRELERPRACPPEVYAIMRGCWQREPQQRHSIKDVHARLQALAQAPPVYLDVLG
Kind of assay: Isolated TRK enzyme assay (HTRF KinEASE-TK, PV3144 TrkA enzyme assay). It counts as biochemical. Particulars: 4 nM enzyme, 40 uM ATP, 35 min, arithmetic mean where more than one reading. A digest of the protocol:
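Enzyme and ATP were preincubated with compound for 20 min at room temperature in buffer with 10 mM MgCl and 2 mM DTT. TK-substrate-Biotin was then added (1 uM final) and the reaction run for an enzyme-specific optimized time. Phosphorylation was read by HTRF, and IC50 values came from sigmoid fits of percent inhibition normalized to plate controls, averaged over replicate readings.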
As to `Cn1cnc(-c2ccc(O[C@@H]3CCN(C(=O)Cc4ccc(OC(F)(F)F)cc4)C[C@@H]3F)c(C(N)=O)c2)c1` [Example 6, 2-{[(3S,4R)-3-fluoro-1-(2-(4-(trifluoromethoxy)phenyl)acetyl)piperidin-4-yl]oxy}-5-(1-methyl-1H-imidazol-4-yl)benzamide], the concentration for half-maximal inhibition (IC50) stood at 1.5 nM.

As for `Cn1cnc(-c2cnc(O[C@@H]3CCN(C(=O)Cc4ccc(OC5CC5)cn4)C[C@@H]3F)c(C(N)=O)c2)c1` [Example 29, 2-{[(3S,4R)-1-{[5-(cyclopropyloxy)pyridin-2-yl]acetyl}-3-fluoropiperidin-4-yl]oxy}-5-(1-methyl-1H-imidazol-4-yl)pyridine-3-carboxamide], the IC50 came out at 4.3 nM.

As for `CS(=O)(=O)Cn1cc(-c2cnc(O[C@H]3CCN(C(=O)Cc4ccc(OC(F)(F)F)c(F)c4)C[C@@H]3F)c(C(N)=O)c2)cn1` [Example 26, 2-{[(3S,4S)-3-fluoro-1-{[3-fluoro-4-(trifluoromethoxy)phenyl]acetyl}piperidin-4-yl]oxy}-5-{1-[(methylsulfonyl)methyl]-1H-pyrazol-4-yl}pyridine-3-carboxamide], the half-maximal inhibitory concentration (IC50) came to 8.9 nM. `CS(=O)(=O)Cn1cc(-c2cnc(OC3CCN(C(=O)Cc4ccc(OC(F)(F)F)c(F)c4)CC3)c(C(N)=O)c2)cn1` [Example 21, 2-[(1-{[3-fluoro-4-(trifluoromethoxy)phenyl]acetyl}piperidin-4-yl)oxy]-5-{1-[(methylsulfonyl)methyl]-1H-pyrazol-4-yl}pyridine-3-carboxamide]: the IC50 stood at 11 nM. The value for `NC(=O)c1cc(-c2cscn2)cnc1OC1CCN(C(=O)Cc2ccc(OC(F)(F)F)cc2)CC1` [Example 180] was 8.26 nM.

Take `NC(=O)c1cc(-c2cnn(C3CS(=O)(=O)C3)c2)ccc1O[C@H]1CCN(C(=O)Cc2ccc(OC(F)(F)F)cc2)C[C@H]1F` [Example 76, 5-[1-(1,1-dioxidothietan-3-yl)-1H-pyrazol-4-yl]-2-{[(3R,4S)-3-fluoro-1-{[4-(trifluoromethoxy)phenyl]acetyl}pipertdin-4-yl]oxy}benzamide]: the half-inhibitory concentration (IC50) amounted to 1.2 nM. The value for `Cc1nn(C[C@@H](O)CO)c(C)c1-c1ccc(OC2CCN(C(=O)Cc3ccc(OC(F)(F)F)cc3)CC2)c(C(N)=O)c1` [Example 123] was 3.8 nM. For `NC(=O)c1cc(-c2cnn(CCO)c2)cnc1OC1CCN(C(=O)Cc2ccc(OC(F)(F)F)cc2)CC1` [Example 89, 5-[1-(2-hydroxyethyl)-1H-pyrazol-4-yl]-2-[(1-{[4-(trifluoromethoxy)phenyl]acetyl}piperidin-4-yl)oxy]pyridine-3-carboxamide], the half-inhibitory concentration (IC50) is 5.4 nM. With `Cn1cc(-c2cc(C(N)=O)c(O[C@@H]3CCN(C(=O)Cc4ccc(OC(F)(F)F)cc4)C[C@@H]3F)nn2)cn1` [Example 157, 3-{[(3S,4R)-3-fluoro-1-{[4-(trifluoromethoxy)phenyl]acetyl}piperidin-4-yl]oxy}-6-(1-methyl-1H-pyrazol-4-yl)pyridazine-4-carboxamide], the IC50 was found to be 7.24 nM. Next, `Cc1nc[nH]c1-c1cnc(OC2CCN(C(=O)Cc3ccc(OC(F)(F)F)cc3)CC2)c(C(N)=O)c1` [Example 179, 5-(4-methyl-1H-imidazol-5-yl)-2-[(1-{[4-(trifluoromethoxy)phenyl]acetyl}piperidin-4-yl)oxy]pyridine-3-carboxamide]: 13.2 nM; `NC(=O)c1cc(N2CCCC2)ncc1OC1CCN(C(=O)Cc2ccc(OC(F)(F)F)cc2)CC1` [Example 54, 2-(pyrrolidin-1-yl)-5-((1-(2-(4-(trifluoromethoxy)phenyl)acetyl)piperidin-4-yl)oxy)isonicotinamide]: 42.4 nM.

Turning to `Cc1nc(OC2CCN(C(=O)Cc3ccc(OC(F)(F)F)cc3)CC2)c(C(N)=O)cc1-c1cn(C)cn1` [Example 69, 6-methyl-5-(1-methyl-1H-imidazol-4-yl)-2-[(1-{[4-(trifluoromethoxy)phenyl]acetyl}piperidin-4-yl)oxy]pyridine-3-carboxamide], the IC50 turned out to be 6.1 nM. Consider `CS(=O)(=O)Cn1cc(-c2cc(C(N)=O)c(O[C@H]3CCN(C(=O)Cc4ccc(OC5CC5)cc4)C[C@@H]3F)cn2)cn1` [Example 165, 5-{[(3S,4S)-1-{[4-(cyclopropyloxy)phenyl]acetyl}-3-fluoropiperidin-4-yl]oxy}-2-{1-[(methylsulfonyl)methyl]-1H-pyrazol-4-yl}pyridine-4-carboxamide], for which the IC50 was determined as 15.9 nM. Next, `Cn1cc(-c2ccc(OC3CCN(C(=O)Cc4ccc(SC(F)(F)F)cc4)CC3)c(C(N)=O)c2)cn1` [Example 108, 5-(1-methyl-1H-pyrazol-4-yl)-2-{[1-({4-[(trifluoromethyl)sulfanyl]phenyl}acetyl)piperidin-4-yl]oxy}benzamide]: 2.7 nM.

For `Cc1nc(-c2cnc(O[C@@H]3CCN(C(=O)Cc4ccc(OC(F)(F)F)cc4)C[C@@H]3F)c(C(N)=O)c2)c[nH]1` [Example 120], the IC50 was 1.3 nM. Next, `NC(=O)c1cc(-c2ccc(CO)cc2)cnc1OC1CCN(C(=O)Cc2ccc(OC(F)(F)F)cc2)CC1` [Example 151, 5-[4-(hydroxymethyl)phenyl]-2-[(1-{[4-(trifluoromethoxy)phenyl]acetyl}piperidin-4-yl)oxy]pyridine-3-carboxamide]: 12 nM. For `CC(C)(O)Cn1cc(-c2cnc(O[C@H]3CCN(C(=O)Cc4ccc(OC5CC5)cn4)C[C@@H]3F)c(C(N)=O)c2)cn1` [Example 163, 2-{[(3S,4S)-1-{[5-(cyclopropyloxy)pyridin-2-yl]acetyl}-3-fluoropiperidin-4-yl]oxy}-5-[1-(2-hydroxy-2-methylpropyl)-1H-pyrazol-4-yl]pyridine-3-carboxamide], the IC50 was 16.6 nM. The value for `Cc1nc(-c2ccc(O[C@H]3CCN(C(=O)Cc4ccc(OC(F)(F)F)cc4)C[C@H]3F)c(C(N)=O)c2)c[nH]1` [Example 77, 2-{[(3R,4S)-3-fluoro-1-{[4-(trifluoromethoxy)phenyl]acetyl}pipertdin-4-yl]oxy}-5-(2-methyl-1H-imidazol-4-yl)benzamide] was 1.6 nM. Next, `NC(=O)c1cc(-c2cn[nH]c2)ncc1OC1CCN(C(=O)Cc2ccc(OC(F)(F)F)c(F)c2)CC1` [Example 169, 5-[(1-{[3-fluoro-4-(trifluoromethoxy)phenyl]acetyl}piperidin-4-yl)oxy]-2-(1H-pyrazol-4-yl)pyridine-4-carboxamide]: 11.8 nM; `Cn1cc(-c2ccc(OC3CCN(C(=O)Cc4ccc(C(C)(C)C)nc4)CC3)c(C(N)=O)c2)cn1` [Example 18, 2-({1-[(6-tert-butylpyridin-3-yl)acetyl]piperidin-4-yl}oxy)-5-(1-methyl-1H-pyrazol-4-yl)benzamide]: 8.9 nM; `CC(C)(O)Cn1cc(-c2ccc(O[C@H]3CCN(C(=O)Cc4ccc(OC5CC5)cn4)C[C@@H]3F)c(C(N)=O)c2)cn1` [Example 34, 2-{[(3S,4S)-1-{[5-(cyclopropyloxy)pyridin-2-yl]acetyl}-3-fluoropiperidin-4-yl]oxy}-5-[1-(2-hydroxy-2-methylpropyl)-1H-pyrazol-4-yl]benzamide]: 7.7 nM. Regarding `Cn1cc(-c2cc(C(N)=O)c(O[C@H]3CCN(C(=O)Cc4ccc(OC(F)(F)F)cc4)C[C@H]3F)nn2)cn1` [Example 156, 3-{[(3R,4S)-3-fluoro-1-{[4-(trifluoromethoxy)phenyl]acetyl}piperidin-4-yl]oxy}-6-(1-methyl-1H-pyrazol-4-yl)pyridazine-4-carboxamide], the concentration for half-maximal inhibition (IC50) came out at 4.16 nM.

Broadly, the IC50 is the concentration at which inhibition is half-maximal.
